% of control and % of inhibition data for 3 compounds are collected here from ChEMBL document CHEMBL5465560, “Selectivity Literature for EUbOPEN Chemogenomic Library” (2024).

Each structure is given as a SMILES string.

For experiment [1], the target named is Protein kinase C delta type (Homo sapiens) (UniProt Q05655). The experiment in a line: Selectivity interaction (KinomeScan (DiscoverX)) EUB0000666a PRKCD. Conditions: at 10 µM.
In experiment [2] the target is T1, Serine/threonine-protein kinase D3 (Homo sapiens) (UniProt O94806).
T1 sequence (whole entry): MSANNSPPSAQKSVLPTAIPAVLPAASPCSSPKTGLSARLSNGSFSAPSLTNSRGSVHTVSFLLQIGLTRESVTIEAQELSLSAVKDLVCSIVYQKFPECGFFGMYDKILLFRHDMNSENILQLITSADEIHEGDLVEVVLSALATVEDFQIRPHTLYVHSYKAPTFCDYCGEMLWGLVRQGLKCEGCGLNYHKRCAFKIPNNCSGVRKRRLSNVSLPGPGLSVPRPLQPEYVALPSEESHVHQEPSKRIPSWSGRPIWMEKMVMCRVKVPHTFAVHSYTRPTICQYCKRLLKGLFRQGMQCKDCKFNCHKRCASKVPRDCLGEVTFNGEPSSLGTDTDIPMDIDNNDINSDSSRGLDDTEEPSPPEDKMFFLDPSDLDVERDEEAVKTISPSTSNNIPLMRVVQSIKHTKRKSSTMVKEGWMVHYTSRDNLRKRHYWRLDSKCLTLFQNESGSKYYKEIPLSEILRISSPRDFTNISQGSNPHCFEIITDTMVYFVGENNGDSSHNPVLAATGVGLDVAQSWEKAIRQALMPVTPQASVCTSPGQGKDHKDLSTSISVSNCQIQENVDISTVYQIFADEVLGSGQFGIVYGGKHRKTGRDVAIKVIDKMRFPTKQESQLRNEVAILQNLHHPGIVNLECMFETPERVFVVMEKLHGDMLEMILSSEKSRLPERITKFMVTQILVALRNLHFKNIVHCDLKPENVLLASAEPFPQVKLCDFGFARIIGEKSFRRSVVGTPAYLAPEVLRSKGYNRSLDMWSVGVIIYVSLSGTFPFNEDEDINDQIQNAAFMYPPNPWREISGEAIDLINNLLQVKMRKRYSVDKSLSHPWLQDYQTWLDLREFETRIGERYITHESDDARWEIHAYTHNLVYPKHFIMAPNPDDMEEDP
Description: Selectivity interaction (KinomeScan (DiscoverX)) EUB0000666a PRKD3. The conditions noted are these: at 10 µM.

Experiment [3] concerns the target T2, SNF-related serine/threonine-protein kinase (Homo sapiens) (UniProt Q9NRH2).
T2 sequence (whole entry): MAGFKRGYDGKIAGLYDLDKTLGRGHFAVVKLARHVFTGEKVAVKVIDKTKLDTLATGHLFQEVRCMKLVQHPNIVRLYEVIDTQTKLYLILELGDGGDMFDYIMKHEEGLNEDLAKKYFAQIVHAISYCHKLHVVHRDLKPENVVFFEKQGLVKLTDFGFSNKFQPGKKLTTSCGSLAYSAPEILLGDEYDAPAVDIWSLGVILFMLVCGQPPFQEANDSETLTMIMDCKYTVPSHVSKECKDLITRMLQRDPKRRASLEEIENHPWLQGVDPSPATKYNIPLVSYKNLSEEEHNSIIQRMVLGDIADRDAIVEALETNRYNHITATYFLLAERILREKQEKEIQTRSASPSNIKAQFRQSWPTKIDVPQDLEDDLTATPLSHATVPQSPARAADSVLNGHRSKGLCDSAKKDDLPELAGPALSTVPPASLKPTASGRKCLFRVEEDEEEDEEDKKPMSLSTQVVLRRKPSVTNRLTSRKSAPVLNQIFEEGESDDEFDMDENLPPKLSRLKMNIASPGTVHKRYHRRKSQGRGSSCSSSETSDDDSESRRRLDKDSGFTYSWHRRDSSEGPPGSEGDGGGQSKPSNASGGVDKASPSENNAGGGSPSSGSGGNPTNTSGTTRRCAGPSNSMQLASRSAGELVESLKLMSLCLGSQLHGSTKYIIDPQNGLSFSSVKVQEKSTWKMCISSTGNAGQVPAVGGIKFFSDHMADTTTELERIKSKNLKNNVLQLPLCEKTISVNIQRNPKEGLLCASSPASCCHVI
The experiment in a line: Selectivity interaction (ActivX KiNativ screen (kinase selectivity in THP-1 cell lysates)) EUB0000639a SNRK. The format is subcellular. The conditions noted are these: lysate, at 5 µM.

Experiment [4] addresses T3, Mitogen-activated protein kinase kinase kinase 19 (Homo sapiens) (UniProt Q56UN5).
T3 sequence (whole entry): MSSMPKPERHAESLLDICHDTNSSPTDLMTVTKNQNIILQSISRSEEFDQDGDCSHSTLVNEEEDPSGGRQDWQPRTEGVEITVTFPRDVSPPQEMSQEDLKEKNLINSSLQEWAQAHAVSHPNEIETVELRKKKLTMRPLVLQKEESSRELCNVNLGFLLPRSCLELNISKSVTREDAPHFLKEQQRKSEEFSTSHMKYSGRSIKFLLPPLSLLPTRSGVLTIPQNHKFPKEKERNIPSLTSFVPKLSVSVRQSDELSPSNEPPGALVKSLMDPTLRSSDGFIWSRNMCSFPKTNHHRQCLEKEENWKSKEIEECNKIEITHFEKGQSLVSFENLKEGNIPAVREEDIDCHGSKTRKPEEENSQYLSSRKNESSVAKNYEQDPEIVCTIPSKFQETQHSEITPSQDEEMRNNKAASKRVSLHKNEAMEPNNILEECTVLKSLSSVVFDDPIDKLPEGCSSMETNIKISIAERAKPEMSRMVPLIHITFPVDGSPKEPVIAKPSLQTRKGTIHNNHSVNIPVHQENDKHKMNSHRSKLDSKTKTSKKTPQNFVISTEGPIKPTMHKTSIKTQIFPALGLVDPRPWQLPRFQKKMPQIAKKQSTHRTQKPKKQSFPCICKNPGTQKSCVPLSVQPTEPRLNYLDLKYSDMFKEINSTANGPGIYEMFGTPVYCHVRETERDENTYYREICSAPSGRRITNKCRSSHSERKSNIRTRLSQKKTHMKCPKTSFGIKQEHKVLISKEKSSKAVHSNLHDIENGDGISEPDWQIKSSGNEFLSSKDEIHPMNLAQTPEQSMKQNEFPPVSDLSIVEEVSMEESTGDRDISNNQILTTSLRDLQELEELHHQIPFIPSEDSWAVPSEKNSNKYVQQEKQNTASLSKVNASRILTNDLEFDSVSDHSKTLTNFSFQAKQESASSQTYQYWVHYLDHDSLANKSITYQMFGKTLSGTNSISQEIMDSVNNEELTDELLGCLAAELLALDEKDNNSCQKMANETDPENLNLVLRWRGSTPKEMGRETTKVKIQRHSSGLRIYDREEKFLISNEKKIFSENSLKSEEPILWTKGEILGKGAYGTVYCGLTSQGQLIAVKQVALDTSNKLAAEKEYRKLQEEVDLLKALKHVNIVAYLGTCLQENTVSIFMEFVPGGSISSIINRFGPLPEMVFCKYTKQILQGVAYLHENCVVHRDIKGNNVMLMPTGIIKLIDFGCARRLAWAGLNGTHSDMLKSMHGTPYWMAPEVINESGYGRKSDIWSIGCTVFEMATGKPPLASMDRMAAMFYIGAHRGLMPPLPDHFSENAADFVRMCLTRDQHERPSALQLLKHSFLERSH
Description: Selectivity interaction (KinomeScan (DiscoverX)) EUB0001619a MAP3K19. Conditions: at 1 µM.

Sequence of Protein kinase C delta type (Homo sapiens) (Q05655 whole entry, looked up): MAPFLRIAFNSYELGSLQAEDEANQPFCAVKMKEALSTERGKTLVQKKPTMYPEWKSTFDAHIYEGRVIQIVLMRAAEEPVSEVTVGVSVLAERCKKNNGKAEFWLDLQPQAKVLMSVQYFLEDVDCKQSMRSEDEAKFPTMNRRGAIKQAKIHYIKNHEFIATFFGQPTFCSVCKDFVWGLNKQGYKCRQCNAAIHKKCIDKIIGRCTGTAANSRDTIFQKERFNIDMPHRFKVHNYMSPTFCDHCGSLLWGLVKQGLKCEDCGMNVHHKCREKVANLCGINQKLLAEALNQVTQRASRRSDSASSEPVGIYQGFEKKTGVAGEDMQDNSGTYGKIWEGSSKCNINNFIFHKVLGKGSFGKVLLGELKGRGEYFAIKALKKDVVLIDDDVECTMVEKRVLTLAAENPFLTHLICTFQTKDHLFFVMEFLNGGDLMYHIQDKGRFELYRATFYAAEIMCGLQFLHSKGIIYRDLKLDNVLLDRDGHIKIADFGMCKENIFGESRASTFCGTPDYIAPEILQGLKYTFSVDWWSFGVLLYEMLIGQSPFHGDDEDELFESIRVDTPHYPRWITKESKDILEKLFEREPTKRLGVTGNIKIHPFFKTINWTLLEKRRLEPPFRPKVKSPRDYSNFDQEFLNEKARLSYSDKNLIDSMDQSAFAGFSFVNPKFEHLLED

Regarding `O=C(NOC[C@H](O)CO)c1ccc(F)c(F)c1Nc1ccc(I)cc1F`, the results for the % of control in experiment [1] and in experiment [2] were 100% and 70%, respectively. In experiment [3], `CC[C@@H]1[C@H](F)C(=O)N[C@@H]1COc1nccc2cc(C(N)=O)c(OC)cc12` [ZIMLOVISERTIB] returned a % of inhibition of 16.9%. `N#Cc1cccc(-c2c[nH]c3ncnc(N4CCOCC4)c23)c1` came in with a % of control in experiment [4] of 3.8%.
